Source: patent US7968093B2, “Fully human antibodies directed against the human insulin-like growth factor-1 receptor” (ImClone LLC, priority 2003, dated 2011)

Key:
[1] = tested on: MAPK; test: IGF-I mediated MAPK phosphorylation, western blot; format: cell-based, human; details: MCF7 cells; IGF-I stimulated
Protocol: To visualize the inhibitory effect of the anti-IGF-IR antibodies on IGF-I signaling, receptor auto-phosphorylation and downstream effector molecule phosphorylation analysis was performed in the presence or absence of antibody A12 or 2F8. The MCF7 human breast cancer cell line was selected for use due to its high IGF-IR density. Cells were plated into 10 cm or 6 well culture dishes and grown to 70-80% confluence. The monolayers were then washed twice in PBS and cultured overnight in serum free defined medium. Anti-IGF-IR antibody was then added in fresh serum-free media (100 nM-10 nM) and incubated cells 30 minutes before addition of ligand (10 nM). Cells were incubated with ligand for 10 minutes, then placed on ice and washed with ice-cold PBS. […] Tyrosine phosphorylated protein was detected on the blot using an anti-p-tyrosine antibody (Cell Signaling #9411) and an anti-mouse-HRP secondary antibody. IGF-IR was detected with monoclonal antibody C-20 (Santa Cruz). For Akt phosphorylation, phospho-Akt was detected with antibody #559029 and total Akt with #559028 (BD Pharmingen). For MAPK phosphorylation, phospho-p44/42 was detected with #9101 and total p44/42 with #9102 (Cell Signaling Tech.). […]

[2] = biological target: T1, IGF-IR on MCF7 cells (Homo sapiens, UniProt P08069); test: Internalization of 125I-A12 after binding to IGF-IR; format: cell-based; details: 37° C., 30-180 minutes
T1 construct: endogenous in cells
Protocol: Antibody A12 was radio-iodinated with ^125iodine using IODO-beads (Pierce) according to manufacturer's instructions. MCF7 human breast cancer cells were plated into 6-well plates and cultured overnight to 50% confluence. One microgram of ^125I-A12 was added to each well and incubated at 37° C. or kept on ice at 4° C. Plates were incubated for 30 minutes, 90 minutes, or 180 minutes and each time point performed in triplicate. The culture at 4° C. was held for 180 minutes. At each time point, wells were washed 1× w/PBS, then stripped for 5 minutes with 100 mM glycine-HCl, 2M urea, pH 2.5. The stripped material, representing membrane bound antibody was kept on ice for counting. Wells were then washed 3 times with PBS and cells solubilized with 1N NaOH/1% TritonX100. The solubilized fraction represented the internalized antibody. Stripped and solubilized fractions were then read on a gamma counter and plotted with standard deviation.

- internalization of labeled antibody [2]: rapidly internalized
Substance: A12: fully human IgG1 anti-IGF-IR antibody, lambda light chain; VH SEQ ID NO:2, VL SEQ ID NO:10; affinity matured from 2F8
- inhibition of MAPK phosphorylation [1]: considerably inhibited
